Target: T1, CXCR4 receptors (Homo sapiens, UniProt P61073)
T1 construct: expressing endogenous CXCR4 receptors; endogenous in cells; host or cells: CCRF-CEM (human T lymphoblast cells)
Assay: CXCR4-CEM calcium flux assay, antagonist mode (inhibition of SDF-1α-induced calcium flux)
Assay type: cell-based
Details: inhibition of calcium flux induced by 4 nM SDF-1α in CCRF-CEM cells
Protocol: Exemplary compounds of the invention were tested for their ability to induce or inhibit calcium flux in CCRF-CEM cells. […] CXCR4-CEM Calcium Flux Assays. […] The cells were then equilibrated to room temperature for 30 minutes before assay. […] The serially diluted compounds were diluted to working concentrations with the same assay buffer to 0.5% DMSO. […] Activity of the compounds to induce calcium flux was monitored by FDSS in the “agonist mode” for 90 sec. For “antagonist mode” assessment, the cells are subsequently incubated for 25 min at room temperature. SDF-1α (R&D System Cat#350-NS/CF) was then added at a final concentration of 4 nM to stimulate the cells. Inhibition of SDF-1α-induced calcium flux was monitored by FDSS6000 for 90 sec. […] After correcting for background, EC50 values were determined. […] Inhibition data for the test compound over a range of concentrations was plotted as percentage inhibition of the test compound as compared to an internal control compound.

T1 sequence (P61073 whole entry): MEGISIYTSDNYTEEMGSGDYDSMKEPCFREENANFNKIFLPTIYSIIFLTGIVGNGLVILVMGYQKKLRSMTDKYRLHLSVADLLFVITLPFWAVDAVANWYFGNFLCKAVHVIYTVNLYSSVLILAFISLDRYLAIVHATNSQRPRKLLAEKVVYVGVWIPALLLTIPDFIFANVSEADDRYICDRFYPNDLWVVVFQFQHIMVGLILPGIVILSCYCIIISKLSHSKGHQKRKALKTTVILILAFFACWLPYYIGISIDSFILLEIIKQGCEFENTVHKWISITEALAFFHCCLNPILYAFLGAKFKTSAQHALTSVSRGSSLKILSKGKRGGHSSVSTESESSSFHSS

| SMILES | IC50 |
| --- | --- |
| CN(Cc1cn2c(N3CCN(CC4CCCC4)CC3)nccc2n1)[C@H]1CCCc2cccnc21 [Example 31, (S)-N-({5-[4-(cyclopentylmethyl)piperazin-1-yl]imidazo[1,2-c]pyrimidin-2-yl}methyl)-N-methyl-5,6,7,8-tetrahydroquinolin-8-amine] | 170 nM |
| CN(Cc1cn2c(N3CCN(CC4CCOC4)CC3)nccc2n1)[C@H]1CCCc2cccnc21 (stereo partly drawn) [Example 32, (S)-N-methyl-N-({5-[4-(oxolan-3-ylmethyl)piperazin-1-yl]imidazo[1,2-c]pyrimidin-2-yl}methyl)-5,6,7,8-tetrahydroquinolin-8-amine] | 310 nM |
| CN(Cc1cn2c(N3CCN(CC(C)(C)C)CC3)nccc2n1)[C@H]1CCCc2cccnc21 [Example 33, (S)-N-({5-[4-(2,2-dimethylpropyl)piperazin-1-yl]imidazo[1,2-c]pyrimidin-2-yl}methyl)-N-methyl-5,6,7,8-tetrahydroquinolin-8-amine] | 1000 nM |
| CN(Cc1cn2c(N3CCN(CCCc4ccccc4)CC3)nccc2n1)[C@H]1CCCc2cccnc21 [Example 34, (S)-N-methyl-N-({5-[4-(3-phenylpropyl)piperazin-1-yl]imidazo[1,2-c]pyrimidin-2-yl}methyl)-5,6,7,8-tetrahydroquinolin-8-amine] | 120 nM |
| CCN1CCN(c2nccc3nc(CN(C)[C@H]4CCCc5cccnc54)cn23)CC1 [Example 35, (S)-N-{[5-(4-ethylpiperazin-1-yl)imidazo[1,2-c]pyrimidin-2-yl]methyl}-N-methyl-5,6,7,8-tetrahydroquinolin-8-amine] | 510 nM |
| CN(Cc1cn2c(N3CCN(CCC(F)(F)F)CC3)nccc2n1)[C@H]1CCCc2cccnc21 [Example 36, (S)-N-methyl-N-({5-[4-(3,3,3-trifluoropropyl)piperazin-1-yl]imidazo[1,2-c]pyrimidin-2-yl}methyl)-5,6,7,8-tetrahydroquinolin-8-amine] | 30700 nM |
| CN(Cc1cn2c(N3CCN(Cc4ccccc4)CC3)nccc2n1)[C@H]1CCCc2cccnc21 [Example 37, (S)-N-{[5-(4-benzylpiperazin-1-yl)imidazo[1,2-c]pyrimidin-2-yl]methyl}-N-methyl-5,6,7,8-tetrahydroquinolin-8-amine] | 23 nM |
| CN1CCC(N2CCN(c3nccc4nc(CN(C)[C@H]5CCCc6cccnc65)cn34)CC2)CC1 [Example 38, (S)-N-methyl-N-({5-[4-(1-methylpiperidin-4-yl)piperazin-1-yl]imidazo[1,2-c]pyrimidin-2-yl}methyl)-5,6,7,8-tetrahydroquinolin-8-amine] | 420 nM |
| CN(Cc1cn2c(N3CCN(CC(c4ccccc4)c4ccccc4)CC3)nccc2n1)[C@H]1CCCc2cccnc21 [Example 39, (S)-N-({5-[4-(2,2-diphenylethyl)piperazin-1-yl]imidazo[1,2-c]pyrimidin-2-yl}methyl)-N-methyl-5,6,7,8-tetrahydroquinolin-8-amine] | 63 nM |
| CC(C)S(=O)(=O)N1CCN(c2nccc3nc(CN(C)[C@H]4CCCc5cccnc54)cn23)CC1 [Example 40, (S)-N-methyl-N-({5-[4-(propane-2-sulfonyl)piperazin-1-yl]imidazo[1,2-c]pyrimidin-2-yl}methyl)-5,6,7,8-tetrahydroquinolin-8-amine] | 14400 nM |
| CN(Cc1cn2c(N3CCN(S(=O)(=O)c4cccnc4)CC3)nccc2n1)[C@H]1CCCc2cccnc21 [Example 41, (S)-N-methyl-N-({5-[4-(pyridine-3-sulfonyl)piperazin-1-yl]imidazo[1,2-c]pyrimidin-2-yl}methyl)-5,6,7,8-tetrahydroquinolin-8-amine] | 7500 nM |
| CN(Cc1cn2c(N3CCN(S(=O)(=O)c4cccc(Cl)c4)CC3)nccc2n1)[C@H]1CCCc2cccnc21 [Example 42, (S)-N-({5-[4-(3-chlorobenzenesulfonyl)piperazin-1-yl]imidazo[1,2-c]pyrimidin-2-yl}methyl)-N-methyl-5,6,7,8-tetrahydroquinolin-8-amine] | 22700 nM |
| CN(Cc1cn2c(N3CCN(C(=O)Nc4ccccc4)CC3)nccc2n1)[C@H]1CCCc2cccnc21 [Example 43, 4-[2-({methyl[(S)-5,6,7,8-tetrahydroquinolin-8-yl]amino}methyl)imidazo[1,2-c]pyrimidin-5-yl]-N-phenylpiperazine-1-carboxamide] | 130 nM |

Now from value to compound:

| IC50 | SMILES |
| --- | --- |
| 9360 nM | CC(C)NC(=O)N1CCN(c2nccc3nc(CN(C)[C@H]4CCCc5cccnc54)cn23)CC1 [Example 44, 4-[2-({methyl[(S)-5,6,7,8-tetrahydroquinolin-8-yl]amino}methyl)imidazo[1,2-c]pyrimidin-5-yl]-N-(propan-2-yl)piperazine-1-carboxamide] |
| 66 nM | CN(Cc1cn2c(N3CCN(C(=O)Nc4cccnc4)CC3)nccc2n1)[C@H]1CCCc2cccnc21 [Example 45, 4-[2-({methyl[(S)-5,6,7,8-tetrahydroquinolin-8-yl]amino}methyl)imidazo[1,2-c]pyrimidin-5-yl]-N-(pyridin-3-yl)piperazine-1-carboxamide] |
| 7.3 nM | CC(CN1CCN(c2nccc3nc(CN(C)[C@H]4CCCc5cccnc54)cn23)CC1)c1ccccc1 (stereo partly drawn) [Example 46, (S)-N-methyl-N-({5-[4-(2-phenylpropyl)piperazin-1-yl]imidazo[1,2-c]pyrimidin-2-yl}methyl)-5,6,7,8-tetrahydroquinolin-8-amine] |
| 9.7 nM | CN(Cc1cn2c(N3CCN(Cc4ccc(-c5ccccc5)cc4)CC3)nccc2n1)[C@H]1CCCc2cccnc21 [Example 47, (S)-N-methyl-N-[(5-{4-[(4-phenylphenyl)methyl]piperazin-1-yl}imidazo[1,2-c]pyrimidin-2-yl)methyl]-5,6,7,8-tetrahydroquinolin-8-amine] |
| 300 nM | CCOC(=O)CN1CCN(c2nccc3nc(CN(C)[C@H]4CCCc5cccnc54)cn23)CC1 [Example 48, ethyl 2-{4-[2-({methyl[(S)-5,6,7,8-tetrahydroquinolin-8-yl]amino}methyl)imidazo[1,2-c]pyrimidin-5-yl]piperazin-1-yl}acetate] |
| 2.8 nM | CN(Cc1cn2c(N3CCN(Cc4ncc[nH]4)CC3)nccc2n1)[C@H]1CCCc2cccnc21 [Example 49, (S)-N-({5-[4-(1H-imidazol-2-ylmethyl)piperazin-1-yl]imidazo[1,2-c]pyrimidin-2-yl}methyl)-N-methyl-5,6,7,8-tetrahydroquinolin-8-amine] |
| 92 nM | CN(Cc1cn2c(N3CCN(CC(=O)O)CC3)nccc2n1)[C@H]1CCCc2cccnc21 [Example 50, 2-{4-[2-({methyl[(S)-5,6,7,8-tetrahydroquinolin-8-yl]amino}methyl)imidazo[1,2-c]pyrimidin-5-yl]piperazin-1-yl}acetic acid] |
| 6 nM | CN(Cc1cn2c(N3CCN(Cc4nccn4C)CC3)nccc2n1)[C@H]1CCCc2cccnc21 [Example 51, (S)-N-methyl-N-[(5-{4-[(1-methyl-1H-imidazol-2-yl)methyl]piperazin-1-yl}imidazo[1,2-c]pyrimidin-2-yl)methyl]-5,6,7,8-tetrahydroquinolin-8-amine] |
| 2.9 nM | Cc1cccc(CN2CCN(c3nccc4nc(CN(C)[C@H]5CCCc6cccnc65)cn34)CC2)c1 [Example 52, (S)-N-methyl-N-[(5-{4-[(3-methylphenyl)methyl]piperazin-1-yl}imidazo[1,2-c]pyrimidin-2-yl)methyl]-5,6,7,8-tetrahydroquinolin-8-amine] |
| 17 nM | Cc1ccc(CN2CCN(c3nccc4nc(CN(C)[C@H]5CCCc6cccnc65)cn34)CC2)cc1 [Example 53, (S)-N-methyl-N-[(5-{4-[(4-methylphenyl)methyl]piperazin-1-yl}imidazo[1,2-c]pyrimidin-2-yl)methyl]-5,6,7,8-tetrahydroquinolin-8-amine] |
| 5.6 nM | CN(Cc1cn2c(N3CCN(Cc4ccco4)CC3)nccc2n1)[C@H]1CCCc2cccnc21 [Example 54, (S)-N-({5-[4-(furan-2-ylmethyl)piperazin-1-yl]imidazo[1,2-c]pyrimidin-2-yl}methyl)-N-methyl-5,6,7,8-tetrahydroquinolin-8-amine] |
| 9 nM | CN(Cc1cn2c(N3CCN(Cc4ccccn4)CC3)nccc2n1)[C@H]1CCCc2cccnc21 [Example 55, (S)-N-methyl-N-({5-[4-(pyridin-2-ylmethyl)piperazin-1-yl]imidazo[1,2-c]pyrimidin-2-yl}methyl)-5,6,7,8-tetrahydroquinolin-8-amine] |
| 4.6 nM | CN(Cc1cn2c(N3CCN(Cc4cccn4C)CC3)nccc2n1)[C@H]1CCCc2cccnc21 [Example 56, (S)-N-methyl-N-[(5-{4-[(1-methyl-1H-pyrrol-2-yl)methyl]piperazin-1-yl}imidazo[1,2-c]pyrimidin-2-yl)methyl]-5,6,7,8-tetrahydroquinolin-8-amine] |
| 28 nM | CN(Cc1cn2c(N3CCN(Cc4cccc(Oc5ccccc5)c4)CC3)nccc2n1)[C@H]1CCCc2cccnc21 [Example 57, (8S)-N-methyl-N-[(5-{4-[(3-phenoxyphenyl)methyl]piperazin-1-yl}imidazo[1,2-c]pyrimidin-2-yl)methyl]-5,6,7,8-tetrahydroquinolin-8-amine] |
| 60 nM | CN(Cc1cn2c(N3CCN(CC4CCCO4)CC3)nccc2n1)[C@H]1CCCc2cccnc21 (stereo partly drawn) [Example 58, (S)-N-methyl-N-({5-[4-(oxolan-2-ylmethyl)piperazin-1-yl]imidazo[1,2-c]pyrimidin-2-yl}methyl)-5,6,7,8-tetrahydroquinolin-8-amine] |

Source: patent publication US10450318B2, “CXCR4 receptor antagonists” (BRISTOL-MYERS SQUIBB COMPANY, priority 2015, dated 2019)
